US9556179B2 (BRISTOL-MYERS SQUIBB COMPANY, priority 2012, dated 2017)

Columns and labels:
[1] = molecular target: CK1δ (Homo sapiens (Human), UniProt P48730); assay: CK1δ kinase assay (Caliper LABCHIP electrophoretic separation of fluoresceinated peptide substrate and product); assay type: biochemical; details: 200 pM enzyme, 50 μM ATP, 22 hours at room temperature
In short: (§1)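 Kinase reactions ran 22 h at room temperature, were stopped with EDTA, and phosphorylated product was separated electrophoretically from unphosphorylated fluoresceinated peptide. Compounds were tested at eleven concentrations from 10 mM DMSO stocks. IC50 by non-linear regression.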

[2] = molecular target: CK1ε (Homo sapiens (Human), UniProt P49674); assay: CK1ε kinase assay (Caliper LABCHIP electrophoretic separation of fluoresceinated peptide substrate and product); assay type: biochemical; details: 200 pM enzyme, 50 μM ATP, 22 hours at room temperature
In short: as §1

Sequence of CK1δ (P48730 whole entry): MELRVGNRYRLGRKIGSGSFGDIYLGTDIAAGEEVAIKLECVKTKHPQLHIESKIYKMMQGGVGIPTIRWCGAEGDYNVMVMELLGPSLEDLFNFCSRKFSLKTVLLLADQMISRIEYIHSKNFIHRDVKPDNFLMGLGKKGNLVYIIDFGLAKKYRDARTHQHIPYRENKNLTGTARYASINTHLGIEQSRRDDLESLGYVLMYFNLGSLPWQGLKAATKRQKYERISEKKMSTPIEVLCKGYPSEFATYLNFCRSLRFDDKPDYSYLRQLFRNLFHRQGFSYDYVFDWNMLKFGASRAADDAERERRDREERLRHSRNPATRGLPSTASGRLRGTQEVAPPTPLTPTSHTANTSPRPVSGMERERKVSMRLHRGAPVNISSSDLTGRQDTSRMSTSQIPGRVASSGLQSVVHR
Sequence of CK1ε (P49674 whole entry): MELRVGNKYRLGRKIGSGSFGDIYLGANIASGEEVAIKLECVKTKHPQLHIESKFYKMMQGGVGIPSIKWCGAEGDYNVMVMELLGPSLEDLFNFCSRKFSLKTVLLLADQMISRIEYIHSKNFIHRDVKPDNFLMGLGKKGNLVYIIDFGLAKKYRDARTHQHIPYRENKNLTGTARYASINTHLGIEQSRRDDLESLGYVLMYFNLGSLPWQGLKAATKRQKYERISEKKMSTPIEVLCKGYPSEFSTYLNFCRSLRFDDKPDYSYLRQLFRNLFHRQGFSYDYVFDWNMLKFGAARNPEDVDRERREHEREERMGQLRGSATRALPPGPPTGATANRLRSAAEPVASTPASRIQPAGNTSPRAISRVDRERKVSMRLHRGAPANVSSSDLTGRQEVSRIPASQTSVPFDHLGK

SMILES | IC50 [1] | IC50 [2]
Cc1nc(-c2ccc(F)cc2)c(-c2ccc3nc(NC(=O)Nc4cccc(C#N)c4)cn3n2)n1C [Compound 410, 1-(3-cyanophenyl)-3-(6-(4-(4-fluorophenyl)-1,2-dimethyl-1H-imidazol-5-yl)imidazo[1,2-b]pyridazin-2-yl)urea] | 7.57 nM | 151 nM
Cc1nc(-c2ccc(F)cc2)c(-c2ccc3nc(NC(=O)c4ccnc(F)c4)c(Br)n3n2)n1C [Compound 411, N-(3-Bromo-6-(4-(4-fluorophenyl)-1,2-dimethyl-1H-imidazol-5-yl)imidazo[1,2-b]pyridazin-2-yl)-2-fluoroisonicotinamide] | 1.61 nM | 19.4 nM
Cc1nc(-c2ccc(F)cc2)c(-c2ccc3nc(NC(=O)c4ccnc(F)c4)c(Cl)n3n2)n1C [Compound 412, N-(3-Chloro-6-(4-(4-fluorophenyl)-1,2-dimethyl-1H-imidazol-5-yl)imidazo[1,2-b]pyridazin-2-yl)-2-fluoroisonicotinamide] | 2.25 nM | 26.6 nM
Cc1nc(-c2ccc(F)cc2)c(-c2ccc3nc(NC(=O)c4ccnc(F)c4)c(C)n3n2)n1C [Compound 413, 2-Fluoro-N-(6-(4-(4-fluorophenyl)-1,2-dimethyl-1H-imidazol-5-yl)-3-methylimidazo[1,2-b]pyridazin-2-yl)isonicotinamide] | 1.14 nM | 19.6 nM
Cc1nc(-c2ccc(F)cc2)c(-c2ccc3nc(NC(=O)C(C)(C)C)cn3n2)n1C [Compound 414, N-(6-(4-(4-Fluorophenyl)-1,2-dimethyl-1H-imidazol-5-yl)imidazo[1,2-b]pyridazin-2-yl)pivalamide] | 0.438 nM | 4.35 nM
O=C(Nc1cn2nc(-c3c(-c4ccc(F)cc4)ncn3CC(F)F)ccc2n1)c1cnc(-c2ccncc2)s1 [Compound 415, N-(6-(1-(2,2-Difluoroethyl)-4-(4-fluorophenyl)-1H-imidazol-5-yl)imidazo[1,2-b]pyridazin-2-yl)-2-(pyridin-4-yl)thiazole-5-carboxamide] | 1.21 nM | 8.71 nM
O=C(Nc1cn2nc(-c3c(-c4ccc(F)cc4)ncn3-c3ccc(F)cc3)ccc2n1)c1ccnc(F)c1 [Compound 416, N-(6-(1,4-bis(4-Fluorophenyl)-1H-imidazol-5-yl)imidazo[1,2-b]pyridazin-2-yl)-2-fluoroisonicotinamide] | 2.5 nM | 57.4 nM
O=C(Nc1cn2nc(-c3c(-c4ccc(F)cc4)ncn3-c3ccc(F)cc3)ccc2n1)c1cc(F)nc(F)c1 [Compound 418, N-(6-(1,4-bis(4-Fluorophenyl)-1H-imidazol-5-yl)imidazo[1,2-b]pyridazin-2-yl)-2,6-difluoroisonicotinamide] | 6.4 nM | 79.2 nM
O=C(Nc1cn2nc(-c3c(-c4ccc(F)cc4)ncn3-c3ccc(F)cc3)ccc2n1)c1ccnc(N2CCOCC2)c1 [Compound 419, N-(6-(1,4-bis(4-Fluorophenyl)-1H-imidazol-5-yl)imidazo[1,2-b]pyridazin-2-yl)-2-morpholinoisonicotinamide] | 3.1 nM | 35.2 nM
O=C(Nc1cn2nc(-c3c(-c4ccc(F)cc4)ncn3-c3ccc(F)cc3)ccc2n1)c1cccc(-c2cccnc2)c1 [Compound 420, N-(6-(1,4-bis(4-Fluorophenyl)-1H-imidazol-5-yl)imidazo[1,2-b]pyridazin-2-yl)-3-(pyridin-3-yl)benzamide] | 3.6 nM | 18.5 nM
O=C(Nc1cn2nc(-c3c(-c4ccc(F)cc4)ncn3-c3cccnc3)ccc2n1)c1cc(F)nc(F)c1 [Compound 423, 2,6-Difluoro-N-(6-(4-(4-fluorophenyl)-1-(pyridin-3-yl)-1H-imidazol-5-yl)imidazo[1,2-b]pyridazin-2-yl)isonicotinamide] | 1.1 nM | 18 nM
O=C(Nc1cn2nc(-c3c(-c4ccc(F)cc4)ncn3-c3cccnc3)ccc2n1)c1ccnc(N2CCOCC2)c1 [Compound 424, N-(6-(4-(4-Fluorophenyl)-1-(pyridin-3-yl)-1H-imidazol-5-yl)imidazo[1,2-b]pyridazin-2-yl)-2-morpholinoisonicotinamide] | 1 nM | 13.6 nM
O=C(Nc1cn2nc(-c3c(-c4ccc(F)cc4)ncn3-c3cccnc3)ccc2n1)c1cccc(-c2cccnc2)c1 [Compound 425, N-(6-(4-(4-Fluorophenyl)-1-(pyridin-3-yl)-1H-imidazol-5-yl)imidazo[1,2-b]pyridazin-2-yl)-3-(pyridin-3-yl)benzamide] | 1.1 nM | 11 nM
O=C(Nc1cn2nc(-c3c(-c4ccc(F)cc4)ncn3C3CC3)ccc2n1)c1ccnc(F)c1 [Compound 426, N-(6-(1-Cyclopropyl-4-(4-fluorophenyl)-1H-imidazol-5-yl)imidazo[1,2-b]pyridazin-2-yl)-2-fluoroisonicotinamide] | 0.9 nM | 10.4 nM
O=C(Nc1cn2nc(-c3c(-c4ccc(F)cc4)ncn3C3CC3)ccc2n1)c1ccncc1 [Compound 427, N-(6-(1-Cyclopropyl-4-(4-fluorophenyl)-1H-imidazol-5-yl)imidazo[1,2-b]pyridazin-2-yl)isonicotinamide] | 0.7 nM | 6.5 nM
O=C(Nc1cn2nc(-c3c(-c4ccc(F)cc4)ncn3C3CC3)ccc2n1)c1ccnc(N2CCOCC2)c1 [Compound 428, N-(6-(1-Cyclopropyl-4-(4-fluorophenyl)-1H-imidazol-5-yl)imidazo[1,2-b]pyridazin-2-yl)-2-morpholinoisonicotinamide] | 0.9 nM | 9.1 nM
O=C(Nc1cn2nc(-c3c(-c4ccc(F)cc4)ncn3C3CCOCC3)ccc2n1)c1cc(F)nc(F)c1 [Compound 433, 2,6-Difluoro-N-(6-(4-(4-fluorophenyl)-1-(tetrahydro-2H-pyran-4-yl)-1H-imidazol-5-yl)imidazo[1,2-b]pyridazin-2-yl)isonicotinamide] | 0.2 nM | 1.2 nM
O=C(Nc1cn2nc(-c3c(-c4ccc(F)cc4)ncn3C3CCOCC3)ccc2n1)c1ccncc1 [Compound 434, N-(6-(4-(4-Fluorophenyl)-1-(tetrahydro-2H-pyran-4-yl)-1H-imidazol-5-yl)imidazo[1,2-b]pyridazin-2-yl)isonicotinamide] | 0.3 nM | 1.8 nM
O=C(Nc1cn2nc(-c3c(-c4ccc(F)cc4)nc4n3CCC4)ccc2n1)c1ccnc(F)c1 [Compound 436, 2-Fluoro-N-(6-(2-(4-fluorophenyl)-6,7-dihydro-5H-pyrrolo[1,2-a]imidazol-3-yl)imidazo[1,2-b]pyridazin-2-yl)isonicotinamide] | 0.4 nM | 2 nM
O=C(Nc1cn2nc(-c3c(-c4ccc(F)cc4)nc4n3CCC4)ccc2n1)c1ccncc1 [Compound 438, N-(6-(2-(4-Fluorophenyl)-6,7-dihydro-5H-pyrrolo[1,2-a]imidazol-3-yl)imidazo[1,2-b]pyridazin-2-yl)isonicotinamide] | 0.3 nM | 2.1 nM
O=C(Nc1cn2nc(-c3c(-c4ccc(F)cc4)nc4n3CCC4)ccc2n1)c1ccnc(N2CCOCC2)c1 [Compound 439, N-(6-(2-(4-Fluorophenyl)-6,7-dihydro-5H-pyrrolo[1,2-a]imidazol-3-yl)imidazo[1,2-b]pyridazin-2-yl)-2-morpholinoisonicotinamide] | 1.3 nM | 3.3 nM
O=C(Nc1cn2nc(-c3c(-c4ccc(F)cc4)nc4n3CCC4)ccc2n1)c1cccc(-c2cccnc2)c1 [Compound 440, N-(6-(2-(4-Fluorophenyl)-6,7-dihydro-5H-pyrrolo[1,2-a]imidazol-3-yl)imidazo[1,2-b]pyridazin-2-yl)-3-(pyridin-3-yl)benzamide] | 0.4 nM | 1.3 nM
O=C(Nc1cn2nc(-c3c(-c4ccc(F)cc4)nc4n3CCCC4)ccc2n1)c1ccnc(F)c1 [Compound 441, 2-Fluoro-N-(6-(2-(4-fluorophenyl)-5,6,7,8-tetrahydroimidazo[1,2-a]pyridin-3-yl)imidazo[1,2-b]pyridazin-2-yl)isonicotinamide] | 0.8 nM | 5.4 nM
O=C(Nc1cn2nc(-c3c(-c4ccc(F)cc4)nc4n3CCCC4)ccc2n1)c1cccc(-c2cccnc2)c1 [Compound 442, N-(6-(2-(4-Fluorophenyl)-5,6,7,8-tetrahydroimidazo[1,2-a]pyridin-3-yl)imidazo[1,2-b]pyridazin-2-yl)-3-(pyridin-3-yl)benzamide] | 0.4 nM | 2.5 nM
O=C(Nc1cn2nc(-c3c(-c4ccc(F)cc4)nc4n3CCCC4)ccc2n1)c1ccnc(N2CCOCC2)c1 [Compound 443, N-(6-(2-(4-Fluorophenyl)-5,6,7,8-tetrahydroimidazo[1,2-a]pyridin-3-yl)imidazo[1,2-b]pyridazin-2-yl)-2-morpholinoisonicotinamide] | 0.4 nM | 2.7 nM
O=C(Nc1cn2nc(-c3c(-c4ccc(F)cc4)nc4n3CCCC4)ccc2n1)c1ccncc1 [Compound 444, N-(6-(2-(4-Fluorophenyl)-5,6,7,8-tetrahydroimidazo[1,2-a]pyridin-3-yl)imidazo[1,2-b]pyridazin-2-yl)isonicotinamide] | 0.2 nM | 2.4 nM
O=C(Nc1cn2nc(-c3c(-c4ccc(F)cc4)nc4n3CCCC4)ccc2n1)c1cc(F)nc(F)c1 [Compound 445, 2,6-Difluoro-N-(6-(2-(4-fluorophenyl)-5,6,7,8-tetrahydroimidazo[1,2-a]pyridin-3-yl)imidazo[1,2-b]pyridazin-2-yl)isonicotinamide] | 0.4 nM | 4.7 nM
O=C(Nc1cn2nc(-c3c(-c4ccc(F)cc4)nc4n3CCOC4)ccc2n1)c1ccnc(F)c1 [Compound 447, 2-Fluoro-N-(6-(2-(4-fluorophenyl)-6,8-dihydro-5H-imidazo[2,1-c][1,4]oxazin-3-yl)imidazo[1,2-b]pyridazin-2-yl)isonicotinamide] | 0.4 nM | 5.8 nM
O=C(Nc1cn2nc(-c3c(-c4ccc(F)cc4)nc4n3CCOC4)ccc2n1)c1ccncc1 [Compound 448, N-(6-(2-(4-Fluorophenyl)-6,8-dihydro-5H-imidazo[2,1-c][1,4]oxazin-3-yl)imidazo[1,2-b]pyridazin-2-yl)isonicotinamide] | 0.4 nM | 3.6 nM
